Experimental data: ChEMBL document CHEMBL5465560, “Selectivity Literature for EUbOPEN Chemogenomic Library” (2024)

Key:
[1] = biological target: Serine/threonine-protein kinase SIK1 (Homo sapiens) (UniProt P57059); experiment: Selectivity interaction (KinomeScan (DiscoverX)) EUB0000229b SIK1; settings: at 10 µM
[2] = biological target: Atypical kinase COQ8A, mitochondrial (Homo sapiens, UniProt Q8NI60); experiment: Selectivity interaction (Competition-binding assay (DiscoverX)) EUB0000229b ADCK3
[3] = biological target: Serine/threonine-protein kinase MRCK beta (Homo sapiens) (UniProt Q9Y5S2); settings: at 10 µM
[4] = biological target: T1, Myotonin-protein kinase (Homo sapiens) (UniProt Q09013); experiment: Selectivity interaction (KinomeScan (DiscoverX)) EUB0000607a DMPK; settings: at 10 µM
T1 sequence (whole entry): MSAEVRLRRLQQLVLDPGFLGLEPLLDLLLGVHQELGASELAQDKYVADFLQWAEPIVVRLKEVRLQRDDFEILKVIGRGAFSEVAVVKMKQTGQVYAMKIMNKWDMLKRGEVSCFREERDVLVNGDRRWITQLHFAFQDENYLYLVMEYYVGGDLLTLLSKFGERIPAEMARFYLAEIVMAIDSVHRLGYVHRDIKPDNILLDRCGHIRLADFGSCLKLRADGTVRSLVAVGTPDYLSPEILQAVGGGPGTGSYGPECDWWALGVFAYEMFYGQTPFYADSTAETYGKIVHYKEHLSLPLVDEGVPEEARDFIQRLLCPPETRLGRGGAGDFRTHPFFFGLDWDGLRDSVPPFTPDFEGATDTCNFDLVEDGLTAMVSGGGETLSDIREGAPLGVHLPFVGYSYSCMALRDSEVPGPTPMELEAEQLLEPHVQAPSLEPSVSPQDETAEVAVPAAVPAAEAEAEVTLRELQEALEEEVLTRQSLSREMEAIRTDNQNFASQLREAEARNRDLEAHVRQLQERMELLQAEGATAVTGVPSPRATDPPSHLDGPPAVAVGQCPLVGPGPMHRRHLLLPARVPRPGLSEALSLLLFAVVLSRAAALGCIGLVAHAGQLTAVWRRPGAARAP

[5] = biological target: T2, Dual specificity mitogen-activated protein kinase kinase 7 (Homo sapiens) (UniProt O14733); experiment: Selectivity interaction (KinomeScan (DiscoverX)) EUB0000607a MAP2K7; settings: at 10 µM
T2 sequence (whole entry): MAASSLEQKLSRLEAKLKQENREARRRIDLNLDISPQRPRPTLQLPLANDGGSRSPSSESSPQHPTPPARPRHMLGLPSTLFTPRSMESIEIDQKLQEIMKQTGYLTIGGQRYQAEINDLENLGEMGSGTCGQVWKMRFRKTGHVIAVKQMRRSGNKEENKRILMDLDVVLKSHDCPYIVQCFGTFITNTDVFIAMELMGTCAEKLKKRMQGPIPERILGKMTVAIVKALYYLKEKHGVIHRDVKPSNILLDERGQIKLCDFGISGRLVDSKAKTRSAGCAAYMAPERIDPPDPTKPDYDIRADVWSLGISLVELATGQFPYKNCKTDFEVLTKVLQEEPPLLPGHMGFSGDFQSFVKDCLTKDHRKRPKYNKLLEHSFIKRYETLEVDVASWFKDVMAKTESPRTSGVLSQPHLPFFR

[6] = biological target: Serine/threonine-protein kinase RIO2 (Homo sapiens) (UniProt Q9BVS4); experiment: Selectivity interaction (KinomeScan (DiscoverX)) EUB0000607a RIOK2; settings: at 10 µM
[7] = biological target: Serine/threonine-protein kinase PLK2 (Homo sapiens, UniProt Q9NYY3); experiment: Selectivity interaction (KinomeScan (DiscoverX)) EUB0000618a PLK2; settings: at 10 µM
[8] = biological target: Homeodomain-interacting protein kinase 1 (Homo sapiens, UniProt Q86Z02); experiment: Selectivity interaction (Kinase panel (Invitrogen)) EUB0000639a HIPK1; settings: at 200 nM
[9] = biological target: T3, Phosphatidylinositol 4,5-bisphosphate 3-kinase catalytic subunit delta isoform (Homo sapiens) (UniProt O00329); experiment: Selectivity interaction (ActivX KiNativ screen (kinase selectivity in THP-1 cell lysates)) EUB0000639a PIK3CD; assay type: subcellular; settings: lysate
T3 sequence (whole entry): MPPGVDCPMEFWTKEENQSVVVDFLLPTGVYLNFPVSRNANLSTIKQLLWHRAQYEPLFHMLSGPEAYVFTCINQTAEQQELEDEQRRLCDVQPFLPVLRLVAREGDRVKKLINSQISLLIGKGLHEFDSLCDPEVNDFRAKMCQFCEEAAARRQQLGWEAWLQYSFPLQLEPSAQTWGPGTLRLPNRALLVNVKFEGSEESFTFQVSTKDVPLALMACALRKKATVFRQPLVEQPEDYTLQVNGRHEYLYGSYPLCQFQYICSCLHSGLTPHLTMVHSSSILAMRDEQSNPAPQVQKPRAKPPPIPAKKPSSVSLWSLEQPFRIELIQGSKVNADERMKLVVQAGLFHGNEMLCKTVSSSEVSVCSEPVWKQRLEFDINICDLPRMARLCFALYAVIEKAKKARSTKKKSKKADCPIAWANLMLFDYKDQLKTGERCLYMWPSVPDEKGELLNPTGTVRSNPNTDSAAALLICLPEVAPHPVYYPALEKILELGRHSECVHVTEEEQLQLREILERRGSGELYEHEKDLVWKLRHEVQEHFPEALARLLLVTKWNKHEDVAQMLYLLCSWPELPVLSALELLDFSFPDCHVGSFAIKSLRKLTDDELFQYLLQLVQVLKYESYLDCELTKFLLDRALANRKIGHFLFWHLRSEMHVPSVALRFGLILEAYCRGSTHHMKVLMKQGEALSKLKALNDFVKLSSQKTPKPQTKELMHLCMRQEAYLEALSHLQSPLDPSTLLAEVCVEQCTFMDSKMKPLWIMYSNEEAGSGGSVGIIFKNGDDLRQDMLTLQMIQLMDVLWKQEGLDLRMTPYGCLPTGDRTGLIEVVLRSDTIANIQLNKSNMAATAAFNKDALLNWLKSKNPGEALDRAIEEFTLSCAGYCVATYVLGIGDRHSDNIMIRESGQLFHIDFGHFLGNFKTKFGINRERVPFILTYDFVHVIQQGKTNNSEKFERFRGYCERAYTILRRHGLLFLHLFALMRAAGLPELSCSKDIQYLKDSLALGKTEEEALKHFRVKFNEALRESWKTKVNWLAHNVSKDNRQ

[10] = biological target: DNA-dependent protein kinase catalytic subunit (Homo sapiens) (UniProt P78527); experiment: Selectivity interaction (Kinase panel (Invitrogen)) EUB0000639a PRKDC; settings: at 200 nM
Sequence of DNA-dependent protein kinase catalytic subunit (Homo sapiens) (P78527 whole entry): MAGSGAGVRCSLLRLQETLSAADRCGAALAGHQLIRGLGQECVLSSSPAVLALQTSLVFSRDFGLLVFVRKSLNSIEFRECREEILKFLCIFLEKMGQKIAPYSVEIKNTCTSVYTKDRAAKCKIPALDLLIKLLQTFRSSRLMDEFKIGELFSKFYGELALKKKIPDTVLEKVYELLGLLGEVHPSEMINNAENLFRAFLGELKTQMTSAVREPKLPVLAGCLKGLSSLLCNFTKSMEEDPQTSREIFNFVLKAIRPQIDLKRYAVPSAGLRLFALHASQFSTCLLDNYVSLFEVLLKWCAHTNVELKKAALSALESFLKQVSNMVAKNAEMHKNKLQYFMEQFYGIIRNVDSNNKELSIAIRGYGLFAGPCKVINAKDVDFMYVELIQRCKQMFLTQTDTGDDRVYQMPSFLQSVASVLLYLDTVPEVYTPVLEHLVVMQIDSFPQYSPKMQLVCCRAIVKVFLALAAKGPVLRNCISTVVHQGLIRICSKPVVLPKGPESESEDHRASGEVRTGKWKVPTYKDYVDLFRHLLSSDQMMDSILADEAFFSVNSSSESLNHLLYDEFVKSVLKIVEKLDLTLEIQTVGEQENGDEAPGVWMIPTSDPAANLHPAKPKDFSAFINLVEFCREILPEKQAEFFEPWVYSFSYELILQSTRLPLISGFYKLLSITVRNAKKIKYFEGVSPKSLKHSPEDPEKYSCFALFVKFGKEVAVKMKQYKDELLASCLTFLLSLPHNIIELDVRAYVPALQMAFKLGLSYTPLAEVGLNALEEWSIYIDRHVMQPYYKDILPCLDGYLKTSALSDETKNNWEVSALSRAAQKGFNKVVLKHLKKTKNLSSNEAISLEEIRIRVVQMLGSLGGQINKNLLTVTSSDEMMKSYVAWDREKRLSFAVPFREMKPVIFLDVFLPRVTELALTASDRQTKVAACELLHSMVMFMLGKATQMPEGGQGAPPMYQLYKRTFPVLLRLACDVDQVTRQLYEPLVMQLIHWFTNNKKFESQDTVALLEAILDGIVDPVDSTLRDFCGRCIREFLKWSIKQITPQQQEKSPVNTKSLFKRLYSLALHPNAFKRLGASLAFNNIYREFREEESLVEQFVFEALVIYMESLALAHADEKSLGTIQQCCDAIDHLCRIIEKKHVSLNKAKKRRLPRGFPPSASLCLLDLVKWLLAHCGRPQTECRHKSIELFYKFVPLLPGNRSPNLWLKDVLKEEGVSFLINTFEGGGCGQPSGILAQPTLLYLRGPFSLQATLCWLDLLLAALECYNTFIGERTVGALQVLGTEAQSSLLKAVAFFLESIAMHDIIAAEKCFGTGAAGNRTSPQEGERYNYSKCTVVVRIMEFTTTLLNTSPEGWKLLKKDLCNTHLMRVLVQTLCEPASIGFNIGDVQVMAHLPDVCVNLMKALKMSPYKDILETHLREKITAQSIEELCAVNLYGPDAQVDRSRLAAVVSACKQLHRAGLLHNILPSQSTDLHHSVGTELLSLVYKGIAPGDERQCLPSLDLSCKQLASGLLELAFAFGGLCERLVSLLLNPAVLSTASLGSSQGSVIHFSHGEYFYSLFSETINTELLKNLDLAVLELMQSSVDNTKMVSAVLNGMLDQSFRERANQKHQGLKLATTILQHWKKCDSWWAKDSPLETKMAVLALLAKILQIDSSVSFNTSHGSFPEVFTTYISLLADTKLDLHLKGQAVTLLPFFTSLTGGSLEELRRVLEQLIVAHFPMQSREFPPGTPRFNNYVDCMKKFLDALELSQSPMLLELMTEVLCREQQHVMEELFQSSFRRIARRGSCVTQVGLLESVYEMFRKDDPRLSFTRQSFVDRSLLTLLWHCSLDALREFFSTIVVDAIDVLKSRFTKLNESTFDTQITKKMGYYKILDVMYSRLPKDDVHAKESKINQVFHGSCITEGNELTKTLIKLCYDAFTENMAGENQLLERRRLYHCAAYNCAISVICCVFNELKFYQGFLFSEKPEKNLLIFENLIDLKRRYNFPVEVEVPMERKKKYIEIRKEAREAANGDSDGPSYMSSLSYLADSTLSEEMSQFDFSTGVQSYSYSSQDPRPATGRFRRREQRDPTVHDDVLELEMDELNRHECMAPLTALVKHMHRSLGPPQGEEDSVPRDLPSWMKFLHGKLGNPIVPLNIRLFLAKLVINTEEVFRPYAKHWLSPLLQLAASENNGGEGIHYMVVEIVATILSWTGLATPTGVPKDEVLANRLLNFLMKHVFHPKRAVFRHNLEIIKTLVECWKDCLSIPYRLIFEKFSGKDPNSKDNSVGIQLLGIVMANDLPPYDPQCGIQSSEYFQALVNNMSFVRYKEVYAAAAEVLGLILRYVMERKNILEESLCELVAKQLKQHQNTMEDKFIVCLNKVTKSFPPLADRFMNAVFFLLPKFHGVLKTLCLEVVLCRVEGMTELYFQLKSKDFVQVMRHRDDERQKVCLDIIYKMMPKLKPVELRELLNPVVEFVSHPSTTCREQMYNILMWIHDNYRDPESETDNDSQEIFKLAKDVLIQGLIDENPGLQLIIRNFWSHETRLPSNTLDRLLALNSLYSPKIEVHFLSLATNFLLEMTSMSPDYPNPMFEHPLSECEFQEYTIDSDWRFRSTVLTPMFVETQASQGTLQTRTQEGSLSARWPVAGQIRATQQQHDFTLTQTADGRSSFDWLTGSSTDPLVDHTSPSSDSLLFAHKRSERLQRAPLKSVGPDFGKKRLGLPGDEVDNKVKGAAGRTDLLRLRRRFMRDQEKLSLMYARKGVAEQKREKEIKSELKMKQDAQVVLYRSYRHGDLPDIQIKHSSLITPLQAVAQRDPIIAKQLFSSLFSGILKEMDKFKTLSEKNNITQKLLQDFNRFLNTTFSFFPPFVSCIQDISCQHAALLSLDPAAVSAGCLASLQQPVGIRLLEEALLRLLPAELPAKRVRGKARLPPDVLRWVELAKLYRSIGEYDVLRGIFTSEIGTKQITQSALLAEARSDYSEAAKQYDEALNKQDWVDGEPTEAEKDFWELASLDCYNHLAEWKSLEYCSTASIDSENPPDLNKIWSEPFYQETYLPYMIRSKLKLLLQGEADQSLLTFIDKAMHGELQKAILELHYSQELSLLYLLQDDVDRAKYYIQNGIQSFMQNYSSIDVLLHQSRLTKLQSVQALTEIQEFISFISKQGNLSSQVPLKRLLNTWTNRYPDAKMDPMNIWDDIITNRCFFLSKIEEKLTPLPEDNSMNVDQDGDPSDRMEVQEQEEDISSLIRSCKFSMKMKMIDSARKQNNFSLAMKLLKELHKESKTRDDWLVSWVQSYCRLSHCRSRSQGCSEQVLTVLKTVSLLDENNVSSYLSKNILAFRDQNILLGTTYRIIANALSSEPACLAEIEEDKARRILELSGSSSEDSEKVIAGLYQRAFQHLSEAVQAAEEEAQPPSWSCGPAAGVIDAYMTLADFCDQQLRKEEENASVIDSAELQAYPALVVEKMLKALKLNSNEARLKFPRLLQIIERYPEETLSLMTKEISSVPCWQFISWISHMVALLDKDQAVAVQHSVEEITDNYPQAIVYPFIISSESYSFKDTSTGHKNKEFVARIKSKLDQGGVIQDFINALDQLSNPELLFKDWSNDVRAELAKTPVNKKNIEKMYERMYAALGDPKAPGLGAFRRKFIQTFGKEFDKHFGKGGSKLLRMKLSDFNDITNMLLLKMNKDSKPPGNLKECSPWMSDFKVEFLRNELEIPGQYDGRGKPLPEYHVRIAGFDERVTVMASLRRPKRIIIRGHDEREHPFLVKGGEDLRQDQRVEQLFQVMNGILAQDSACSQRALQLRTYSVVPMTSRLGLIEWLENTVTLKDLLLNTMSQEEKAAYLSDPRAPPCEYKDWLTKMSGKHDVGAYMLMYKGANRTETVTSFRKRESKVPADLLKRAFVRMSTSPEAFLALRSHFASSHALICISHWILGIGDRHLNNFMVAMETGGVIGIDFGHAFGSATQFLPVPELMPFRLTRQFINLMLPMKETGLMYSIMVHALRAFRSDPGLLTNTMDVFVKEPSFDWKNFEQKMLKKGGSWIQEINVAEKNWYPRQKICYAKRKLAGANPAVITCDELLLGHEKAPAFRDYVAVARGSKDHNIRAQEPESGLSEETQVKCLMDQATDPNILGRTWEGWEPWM

Sequence of Serine/threonine-protein kinase SIK1 (Homo sapiens) (P57059 whole entry): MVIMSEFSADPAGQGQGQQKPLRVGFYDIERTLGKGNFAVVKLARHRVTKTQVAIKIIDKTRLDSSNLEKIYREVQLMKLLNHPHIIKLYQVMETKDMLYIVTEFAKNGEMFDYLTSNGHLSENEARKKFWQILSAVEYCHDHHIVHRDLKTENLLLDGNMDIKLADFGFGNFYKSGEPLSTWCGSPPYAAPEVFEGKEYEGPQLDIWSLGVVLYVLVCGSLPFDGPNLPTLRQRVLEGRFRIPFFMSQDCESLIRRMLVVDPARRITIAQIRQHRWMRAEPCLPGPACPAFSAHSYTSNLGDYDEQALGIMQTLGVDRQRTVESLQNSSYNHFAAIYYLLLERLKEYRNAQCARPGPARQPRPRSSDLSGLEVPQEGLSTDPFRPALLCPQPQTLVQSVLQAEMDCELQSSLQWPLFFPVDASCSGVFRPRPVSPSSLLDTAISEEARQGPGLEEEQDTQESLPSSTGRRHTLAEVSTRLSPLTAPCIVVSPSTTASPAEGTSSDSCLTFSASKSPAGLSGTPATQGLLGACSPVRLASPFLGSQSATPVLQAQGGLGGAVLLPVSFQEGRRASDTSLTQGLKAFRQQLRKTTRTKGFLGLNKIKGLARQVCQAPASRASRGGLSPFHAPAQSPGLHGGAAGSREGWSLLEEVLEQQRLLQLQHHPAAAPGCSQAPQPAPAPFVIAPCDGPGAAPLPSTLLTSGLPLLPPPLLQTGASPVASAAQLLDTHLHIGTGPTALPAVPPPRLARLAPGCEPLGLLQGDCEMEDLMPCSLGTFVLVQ

## COc1cc(N(C)c2ccnc3ccc(C(F)(F)F)cc23)cc(OC)c1OC
[1]
  % binding: 96%
[2]
  Kd: > 10 µM

## COCC(=O)NC/C=C/c1ccc2ncnc(Nc3ccc(Oc4ccc(C)nc4)c(C)c3)c2c1 [CP-724714]
[3]
  % of control: 96%

## CNC(=O)Nc1ccc(-c2nc(N3CC4CCC(C3)O4)c3cnn(C4CCC5(CC4)OCCO5)c3n2)cc1
[4]
  % of control: 83%
[5]
  % of control: 100%
[6]
  % of control: 90%

## O[C@H]1CC[C@H](Nc2ncc3nc(Nc4c(F)cc(F)cc4F)n([C@H]4CCOC4)c3n2)CC1
[7]
  % of control: 100%

## CC[C@@H]1[C@H](F)C(=O)N[C@@H]1COc1nccc2cc(C(N)=O)c(OC)cc12 [ZIMLOVISERTIB]
[8]
  % of inhibition: 7.68%
[9]; at 0.01 µM
  % of inhibition: -1.5%
[9]; at 0.04 µM
  % of inhibition: -1.9%
[9]; at 0.2 µM
  % of inhibition: -4.2%
[9]; at 1 µM
  % of inhibition: 17.9%
[9]; at 5 µM
  % of inhibition: 22.6%
[10]
  % of inhibition: 7.87%
